Measured values taken from US10011842B2, “Escherichia coli cell line with thyA knockout, folA knockout, and one or both of folP knockout, and folK knockout” (priority 2013, dated 2018).

What was measured:
[1] = tested on: Plasmodium falciparum parasites; test: standard hypoxanthine incorporation method in Plasmodium falciparum parasites; assay type: cell-based; details: read-out: IC50 (50% inhibitory concentration)
[2] = tested on: PEcΔTFP transformed with plasmids containing Pfdhfr-ts (WT) and Pfhppk-dhps (WT); test: growth inhibition of PEcΔTFP surrogate host (antifolate drug screening); assay type: cell-based, Escherichia coli BL21(DE3); details: PEcΔTFP with wild type Pfdhfr-ts and Pfhppk-dhps, minimal media with L-arabinose, 37 degrees Celsius, 16 hours
Experimental: (§1) Pyrimethamine and sulfathiazole were chosen for this experiment. The 50% inhibitory concentrations (IC50) of each drug were calculated from dose-response growth curves for PEcΔTFP and PEcΔTFPK surrogates transformed with plasmids containing wild type Pfdhfr-ts and Pfhppk-dhps. Cells were incubated in various concentrations of drug in minimal media supplemented with L-arabinose as an inducer and antibiotics for selection of complementing plasmids in 96-well plates at 37 degrees Celsius for 16 hours.

[3] = tested on: PEcΔTFPK transformed with plasmids containing Pfdhfr-ts (WT) and Pfhppk-dhps (WT); test: growth inhibition of PEcΔTFPK surrogate host (antifolate drug screening); assay type: cell-based, Escherichia coli BL21(DE3); details: PEcΔTFPK with wild type Pfdhfr-ts and Pfhppk-dhps, minimal media with L-arabinose, 37 degrees Celsius, 16 hours
Experimental: as §1

SMILES | IC50 [1] [µM] | IC50 from dose-response growth curves compared with the standard method [2] | IC50 from dose-response growth curves compared with the standard method [3]
CCc1nc(N)nc(N)c1-c1ccc(Cl)cc1 [pyrimethamine] | 0.041 ± 0.006 | – | –
Nc1ccc(S(=O)(=O)Nc2nccs2)cc1 [sulfathiazole] | 135.4 ± 0.49 | very similar to values from the standard hypoxanthine incorporation method | very similar to values from the standard hypoxanthine incorporation method
